Source: patent US7105534B2, “Imidazo[1,2-α]pyridine ether compounds as ion channel modulators” (Cardiome Pharma Corp., priority 2000, dated 2006)
pIC50: −log10 of the molar value. Counter-ions that a name gives are not always drawn.

Legend:
Sprague Dawley rats = assay: Cardiovascular and behavioral effects: ECG changes during i.v. infusion in conscious rats; assay type: in vivo, rat; conditions: for D25 QT (dose required to produce a 25% increase in Q-T interval): indicates cardiac potassium channel blockade
Description: Preparative surgery is performed in Sprague Dawley rats weighing 200–300 gm and anaesthetized with 65 mg/kg (i.p.) pentobarbital. The femoral artery and vein are cannulated using polyethylene (PE)-10 tubing. Prior to surgery, this PE-10 tubing had been annealed to a wider gauge (PE-50) tubing for externalization. The cannulated PE-10/PE-50 tubing is passed through a trocar and exteriorised together with three (lead II) limb ECG leads (see below). The trocar is threaded under the skin of the back and out through a small incision at the mid-scapular region. A ground ECG electrode is inserted subcutaneously using a 20 gauge needle with the lead wire threaded through it. To place the other ECG electrodes, a small incision is made in the anterior chest region over the heart and ECG leads are inserted into the subcutaneous muscle layer in the region of the heart using a 20 guage needle. Other ECG leads are inserted into the subcutaneous muscle layer in the region near the base of the neck and shoulder (right side). The animal is returned to a clean recovery-cage with free access to food and water. The treatment and observational period for each animal commenced after a 24-hour recovery period.
A 15 min observational period is recorded followed by the intravenous infusion regime of the test compound at an initial dose of 2.0 μmol/kg/min (at 1 ml/hr). This rate is doubled every 5 minutes until one of the following effects is observed:
Blood pressure (BP), heart rate (HR) and ECG variables are continuously recorded while behavioral responses are also monitored and the total accumulative drug dose and drug infusion rate at which the response (such as convulsion, piloerection, ataxia, restlessness, compulsive chewing, lip-smacking, wet dog shake etc.) occurred are recorded.
Electrocardiograph (ECG) parameters: PR, QRS, QT1 (peak of T-wave), QT2 (midpoint of T-wave deflection) and hemodynamic parameters: BP and HR are analyzed using the automated analysis function in LabView (National Instruments) with a customized autoanalysis software (Nortran Pharmaceuticals). The infused dose producing 25% from control (D25) for all recorded ECG variables is determined.
Table 2 describes the results of the tests as D25 (micromol/kg) which are the doses required to produce a 25% increase in the ECG parameter measured (ne=not estimated). The increases in P-R interval and QRS interval indicate cardiac sodium channel blockade while the increase in Q-T interval indicates cardiac potassium channel blockade.

CD-1 mice = assay: Assessment of pain blockage: pin prick, mouse tail; assay type: in vivo; conditions: injection into lateral tail vein with tourniquet
Description: CD-1 mice (20–30 g) are restrained in an appropriate holder. A tourniquet is placed at the base of the tail and a solution of the test compound (50 μl, 5 mg/ml) is injected into the lateral tail vein. The tourniquet is removed 10 min after the injection. Suitable dilutions of compound solution are used to obtain an ED50 for pain blockade at various times after injection. Pain responses are assessed by pin prick at regular intervals up to 4 hours post injection and the duration of pain blockage is recorded for three animals for each test compound solution. Compounds of the present invention may be evaluated according to the method described.

hH1 Na+ current = biological target: T1, hH1 Na+ current (Homo sapiens, UniProt Q14524); assay: Patch-clamp inhibition of cloned ion channel current in transfected HEK cells: Na; assay type: cell-based; conditions: peak hH1 Na+ current, -100 mV to -30 mV
T1 construct: expressed in transfected cells; host or cells: HEK cells, transient transfection, vector pCDNA3
Description: (§1) The relevant cloned ion channels (e.g. cardiac hH1, Kv1.4, Kv1.5, Kv4.2, Kv2.1, HERG etc.) are studied by transient transfection into HEK cells using the mammalian expression vector pCDNA3. Transfections for each channel type are carried out separately to allow individual study of the ion channel of interest. Cells expressing channel protein are detected by cotransfecting cells with the vector pHook-1 (Invitrogen, San Diego, Calif., USA). […] Equal concentrations of individual channel and pHook DNA are incubated with 10× concentration of lipofectAce in Modified Eagle's Medium (MEM, Canadian Life Technologies) and incubated with parent HEK cells plated on 25 mm culture dishes. After 3–4 hours the solution is replaced with a standard culture medium plus 20% fetal bovine serum and 1% antimycotic. Transfected cells are maintained at 37C in an air/5% CO2 incubator in 25 mm Petri dishes plated on glass coverslips for 24–48 hours to allow channel expression to occur. 20 min prior to experiments, cells are treated with beads coated with phOX. After 15 min, excess beads are […] off with cell culture medium and cells which had beads stuck to them are used for electrophysiological tests.
(§2) For whole-cell recording the control pipette filling solution contained (in mM): KCl, 130; EGTA, 5; MgCl2, 1; HEPES, 10; Na2ATP, 4; GTP, 0.1; and is adjusted to pH 7.2 with KOH. The control bath solution contained (in mM): NaCl, 135; KCI, 5; sodium acetate, 2.8; MgCl2, 1; HEPES, 10; CaCl2, 1; and is adjusted to pH 7.4 with NaOH. The test ion channel modulating compound is dissolved to 10 mM stock solutions in water and used at concentrations between 0.5 and 100 μM.
(§3) Coverslips containing cells are removed from the incubator before experiments and placed in a superfusion chamber (volume 250 μl) containing the control bath solution at 22C to 23C. All recordings are made via the variations of the patch-clamp technique, using an Axopatch 200A amplifier (Axon Instruments, CA). Patch electrodes are pulled from thin-walled borosilicate glass (World Precision Instruments; FL) on a horizontal micropipette puller, fire-polished, and filled with appropriate solutions. Electrodes had resistances of […] when filled with control filling solution. Analog capacity compensation is used in all whole cell measurements. In some experiments, leak subtraction is applied to data. Membrane potentials have not been corrected for any junctional potentials that arose between the pipette and bath solution. Data are filtered at 5 to 10 kHz before digitization and stored on a microcomputer for later analysis using the pClamp6 software (Axon Instruments, Foster City, Calif.). Due to the high level of expression of channel cDNA's in HEK cells, there is no need for signal averaging. The average cell capacitance is quite small, and the absence of ionic current at negative membrane potentials allowed faithful leak subtraction of data.
(§4) The concentration-response curves for changes in peak and steady-state current produced by the test compound are computer-fitted to the Hill equation: f=1−1/[1+([…])^n] [1]
(§5) where f is the fractional current (f=Idrug/Icontrol) at drug concentration [D]; IC50 is the concentration producing half-maximal inhibition and n is the Hill coefficient.
(§6) Compounds of the present invention may be evaluated by this method. […] Block is determined from the decrease in peak hH1 Na^+ current, or in steady-state Kv1.5 and integrated Kv4.2 current in the presence of drug. To record Na^+ current, cells are depolarized from the holding potential of −100 mV to a voltage of −30 mV for 10 ms to fully open and inactivate the channel. To record Kv1.5 and Kv4.2 current, cells are depolarized from the holding potential of −80 mV to a voltage of +60 mV for 200 ms to fully open the channel. Currents are recorded in the steady-state at a range of drug concentrations during stimulation every 4 s. […]

Kv1.5 = biological target: T2, Kv1.5 (Homo sapiens, UniProt P22460); assay: Patch-clamp inhibition of cloned ion channel current in transfected HEK cells: Kv1.5; assay type: cell-based; conditions: steady-state current, -80 mV to +60 mV
T2 construct: expressed in transfected cells; host or cells: HEK cells, transient transfection, vector pCDNA3
Description: as §1, §2, §3, §4, §5, §6

Kv4.2 = biological target: T3, Kv4.2 (Homo sapiens, UniProt Q9NZV8); assay: Patch-clamp inhibition of cloned ion channel current in transfected HEK cells: Kv4.2; assay type: cell-based; conditions: integrated current, -80 mV to +60 mV
T3 construct: expressed in transfected cells; host or cells: HEK cells, transient transfection, vector pCDNA3
T3 sequence (Q9NZV8 1-630): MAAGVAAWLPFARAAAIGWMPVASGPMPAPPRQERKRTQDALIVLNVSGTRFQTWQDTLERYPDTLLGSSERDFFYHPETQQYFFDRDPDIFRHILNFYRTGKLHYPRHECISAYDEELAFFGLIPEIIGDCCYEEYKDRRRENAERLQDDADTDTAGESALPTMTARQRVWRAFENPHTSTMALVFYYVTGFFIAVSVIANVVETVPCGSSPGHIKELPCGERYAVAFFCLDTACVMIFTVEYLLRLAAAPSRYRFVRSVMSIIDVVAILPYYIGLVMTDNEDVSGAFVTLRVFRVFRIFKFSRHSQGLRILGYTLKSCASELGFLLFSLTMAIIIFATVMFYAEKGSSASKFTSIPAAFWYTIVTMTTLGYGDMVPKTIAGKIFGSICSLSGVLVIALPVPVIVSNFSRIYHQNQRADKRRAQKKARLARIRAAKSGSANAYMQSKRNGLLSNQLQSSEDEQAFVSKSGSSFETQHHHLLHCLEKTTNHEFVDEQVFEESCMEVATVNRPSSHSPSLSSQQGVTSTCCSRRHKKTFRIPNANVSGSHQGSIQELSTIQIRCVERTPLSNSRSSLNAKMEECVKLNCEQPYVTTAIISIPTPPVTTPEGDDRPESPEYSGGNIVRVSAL
Description: as §1, §2, §3, §4, §5, §6

HERG = biological target: T4, HERG (Homo sapiens, UniProt Q12809); assay: Patch-clamp inhibition of cloned ion channel current in transfected HEK cells: HERG; assay type: cell-based; conditions: whole-cell patch clamp
T4 construct: expressed in transfected cells; host or cells: HEK cells, transient transfection, vector pCDNA3
Description: as §1, §2, §3, §4, §5, §6

Mongrel dogs = assay: Canine vagal-AF model: termination of sustained atrial fibrillation; assay type: in vivo, dog; conditions: IV
Description: Mongrel dogs of either sex weighing 15-49 kg are anesthetized with morphine (2 mg/kg im initially, followed by 0.5 mg/kg IV every 2 h) and α-chloralose (120 mg/kg IV followed by an infusion of 29.25 mg/kg/h; St.-Georges et al., 1997). Dogs are ventilated mechanically with room air supplemented with oxygen via an endotracheal tube at 20 to 25 breaths/minute with a tidal volume obtained from a nomogram. […] Catheters are inserted into the femoral artery for blood pressure recording and blood gas measurement, and into both femoral veins for drug administration and venous sampling. Catheters are kept patent with heparinized 0.9% saline solution. Body temperature is maintained at 37-40° C. with a heating blanket. […] Drug effects to terminate sustained AF maintained during continuous vagal nerve stimulation are assessed. […] The vagal stimulation voltage is adjusted under control conditions, and then readjusted after each treatment to maintain the same bradycardic effect. […] Diastolic threshold current is determined at a basic cycle length of 300 ms by increasing the current 0.1 mA incrementally until stable capture is obtained. […] Atrial and ventricular ERP is measured with the extrastimulus method, over a range of S1S2 intervals at a basic cycle length of 300 ms. […] Diastolic threshold and ERP are determined in duplicate and averaged to give a single value. […]

[1] = indicates cardiac sodium channel blockade

T2 sequence (P22460 whole entry): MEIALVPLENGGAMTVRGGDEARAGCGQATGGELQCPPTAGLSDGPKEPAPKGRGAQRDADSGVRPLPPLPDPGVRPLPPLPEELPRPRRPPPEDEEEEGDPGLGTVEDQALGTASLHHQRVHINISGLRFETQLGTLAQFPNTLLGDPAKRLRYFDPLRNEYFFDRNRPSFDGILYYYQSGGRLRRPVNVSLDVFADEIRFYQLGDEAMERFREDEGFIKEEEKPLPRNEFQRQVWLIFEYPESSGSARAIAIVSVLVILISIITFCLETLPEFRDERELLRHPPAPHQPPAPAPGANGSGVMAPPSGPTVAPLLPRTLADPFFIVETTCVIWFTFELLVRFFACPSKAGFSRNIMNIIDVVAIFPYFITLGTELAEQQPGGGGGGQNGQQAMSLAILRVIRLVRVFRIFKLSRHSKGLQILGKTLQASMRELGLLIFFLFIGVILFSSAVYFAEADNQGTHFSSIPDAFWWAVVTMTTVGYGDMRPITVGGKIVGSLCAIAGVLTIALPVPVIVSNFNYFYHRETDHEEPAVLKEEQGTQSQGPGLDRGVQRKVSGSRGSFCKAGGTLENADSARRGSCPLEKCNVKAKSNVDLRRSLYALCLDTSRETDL
T1 sequence (Q14524 whole entry): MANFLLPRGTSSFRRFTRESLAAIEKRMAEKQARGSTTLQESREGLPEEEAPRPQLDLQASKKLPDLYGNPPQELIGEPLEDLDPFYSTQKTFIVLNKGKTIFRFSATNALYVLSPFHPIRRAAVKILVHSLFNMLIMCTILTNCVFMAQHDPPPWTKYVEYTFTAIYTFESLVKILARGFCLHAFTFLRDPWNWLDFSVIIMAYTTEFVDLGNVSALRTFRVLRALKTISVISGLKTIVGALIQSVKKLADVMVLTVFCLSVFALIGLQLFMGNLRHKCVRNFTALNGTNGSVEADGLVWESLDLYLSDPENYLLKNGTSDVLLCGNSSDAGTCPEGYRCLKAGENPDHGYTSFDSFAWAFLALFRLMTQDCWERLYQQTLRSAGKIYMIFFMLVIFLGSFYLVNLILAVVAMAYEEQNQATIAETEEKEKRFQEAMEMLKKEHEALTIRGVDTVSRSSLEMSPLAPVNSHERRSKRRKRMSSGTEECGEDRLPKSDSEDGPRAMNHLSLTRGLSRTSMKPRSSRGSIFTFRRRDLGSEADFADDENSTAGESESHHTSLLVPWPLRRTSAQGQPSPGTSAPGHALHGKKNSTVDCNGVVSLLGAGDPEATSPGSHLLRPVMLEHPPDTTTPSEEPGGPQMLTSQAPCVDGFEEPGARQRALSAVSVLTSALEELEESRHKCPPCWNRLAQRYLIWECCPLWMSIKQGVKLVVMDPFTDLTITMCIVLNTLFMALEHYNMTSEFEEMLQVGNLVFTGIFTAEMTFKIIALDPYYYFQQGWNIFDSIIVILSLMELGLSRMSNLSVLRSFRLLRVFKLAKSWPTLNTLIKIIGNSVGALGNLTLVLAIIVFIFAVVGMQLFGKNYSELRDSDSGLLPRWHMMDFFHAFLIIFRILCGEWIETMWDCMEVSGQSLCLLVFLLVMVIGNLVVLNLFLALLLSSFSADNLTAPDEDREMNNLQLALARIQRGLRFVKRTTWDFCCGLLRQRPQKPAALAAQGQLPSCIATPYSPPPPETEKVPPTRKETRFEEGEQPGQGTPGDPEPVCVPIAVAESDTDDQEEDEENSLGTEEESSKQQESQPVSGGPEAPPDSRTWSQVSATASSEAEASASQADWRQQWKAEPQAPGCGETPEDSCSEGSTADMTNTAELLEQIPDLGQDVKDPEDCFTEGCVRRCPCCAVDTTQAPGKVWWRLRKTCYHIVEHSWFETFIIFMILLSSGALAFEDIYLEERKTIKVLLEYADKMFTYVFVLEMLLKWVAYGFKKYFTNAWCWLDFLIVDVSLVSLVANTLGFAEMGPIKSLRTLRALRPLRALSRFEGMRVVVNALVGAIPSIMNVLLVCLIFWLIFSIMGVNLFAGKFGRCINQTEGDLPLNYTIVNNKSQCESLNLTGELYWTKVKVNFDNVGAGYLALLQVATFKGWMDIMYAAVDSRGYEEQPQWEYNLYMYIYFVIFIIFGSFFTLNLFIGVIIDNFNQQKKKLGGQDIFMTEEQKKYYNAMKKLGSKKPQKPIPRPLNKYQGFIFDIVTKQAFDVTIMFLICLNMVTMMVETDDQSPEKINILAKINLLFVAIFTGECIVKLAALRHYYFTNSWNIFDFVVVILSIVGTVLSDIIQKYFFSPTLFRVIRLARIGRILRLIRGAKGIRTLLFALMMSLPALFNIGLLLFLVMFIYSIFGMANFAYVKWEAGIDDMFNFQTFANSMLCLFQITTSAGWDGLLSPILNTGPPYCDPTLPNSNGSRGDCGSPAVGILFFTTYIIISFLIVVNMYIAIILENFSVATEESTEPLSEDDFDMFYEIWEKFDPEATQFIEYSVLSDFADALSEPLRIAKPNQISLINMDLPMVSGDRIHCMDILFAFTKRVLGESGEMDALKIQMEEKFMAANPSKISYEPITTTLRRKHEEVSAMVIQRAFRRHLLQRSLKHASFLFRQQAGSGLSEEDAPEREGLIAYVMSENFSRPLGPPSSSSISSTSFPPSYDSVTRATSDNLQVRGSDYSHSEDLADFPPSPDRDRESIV
T4 sequence (Q12809 whole entry): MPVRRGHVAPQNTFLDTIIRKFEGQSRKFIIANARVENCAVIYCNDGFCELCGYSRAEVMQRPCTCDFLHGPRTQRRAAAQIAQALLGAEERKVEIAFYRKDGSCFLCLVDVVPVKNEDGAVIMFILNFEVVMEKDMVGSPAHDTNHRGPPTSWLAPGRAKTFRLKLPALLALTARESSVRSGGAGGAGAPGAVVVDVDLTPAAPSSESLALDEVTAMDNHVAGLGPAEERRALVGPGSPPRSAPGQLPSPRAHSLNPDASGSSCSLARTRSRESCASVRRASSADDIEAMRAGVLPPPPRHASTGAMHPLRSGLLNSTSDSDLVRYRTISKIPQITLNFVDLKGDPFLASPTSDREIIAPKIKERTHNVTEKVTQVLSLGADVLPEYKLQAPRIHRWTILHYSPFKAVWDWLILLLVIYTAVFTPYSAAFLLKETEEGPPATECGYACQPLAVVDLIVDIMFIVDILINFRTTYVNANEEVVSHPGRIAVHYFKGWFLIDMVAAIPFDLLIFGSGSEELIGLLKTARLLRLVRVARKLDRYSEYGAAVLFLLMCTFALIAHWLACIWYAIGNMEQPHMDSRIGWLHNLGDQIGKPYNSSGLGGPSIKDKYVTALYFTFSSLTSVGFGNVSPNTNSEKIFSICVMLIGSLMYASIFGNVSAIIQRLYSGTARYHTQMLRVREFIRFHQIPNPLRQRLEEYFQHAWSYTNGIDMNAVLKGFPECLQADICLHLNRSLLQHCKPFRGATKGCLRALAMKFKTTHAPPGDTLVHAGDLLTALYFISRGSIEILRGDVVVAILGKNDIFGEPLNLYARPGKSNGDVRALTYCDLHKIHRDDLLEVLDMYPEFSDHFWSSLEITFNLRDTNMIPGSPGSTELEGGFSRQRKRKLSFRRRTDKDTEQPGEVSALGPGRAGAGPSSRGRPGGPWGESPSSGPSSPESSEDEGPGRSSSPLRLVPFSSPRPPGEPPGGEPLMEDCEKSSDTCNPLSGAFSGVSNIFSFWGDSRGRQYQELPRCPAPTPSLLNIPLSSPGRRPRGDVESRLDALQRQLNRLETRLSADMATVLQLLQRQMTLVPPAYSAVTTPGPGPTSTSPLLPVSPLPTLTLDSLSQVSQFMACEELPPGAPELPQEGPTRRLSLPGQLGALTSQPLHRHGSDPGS

Work on `Cc1cn2cccc(OCCCc3ccc(Cl)cc3Cl)c2n1` (as salt: hydrochloride) [Compound 1, 8-[3-(2,4-DICHLOROPHENYL)PROPOXY]-2-METHYLIMIDAZO[1,2-α]PYRIDINEMONOHYDROCHLORIDE] yielded a melting point of less than 193 °C.

In the case of `Cc1cn2cccc(OCCCc3ccc(Cl)cc3Cl)c2n1` [Compound 1, 8-[3-(2,4-DICHLOROPHENYL)PROPOXY]-2-METHYLIMIDAZO[1,2-α]PYRIDINEMONOHYDROCHLORIDE], the “D25 QT (dose required to produce a 25% increase in Q-T interval)” value (Sprague Dawley rats) was 8 µmol/kg, the “D25 PR (dose required to produce a 25% increase in P-R interval)” value (Sprague Dawley rats; [1]) was 14 µmol/kg and the “D25 QRS (dose required to produce a 25% increase in QRS interval)” value (Sprague Dawley rats; [1]) was 12 µmol/kg. For the same molecule, the “ED50 for pain blockade” value (CD-1 mice) was 0.073 mg/tail, the pIC50 (hH1 Na+ current) was 5.10 and the pIC50 (Kv1.5) was 6.52. For the same molecule, the pIC50 (Kv4.2) was 5.70 and the pIC50 (HERG) was 7.00.

In the case of `Cc1cn2cccc(OCCCc3ccccc3)c2n1` [Compound 2, 2-METHYL-8-[3-PHENYLPROPOXY]IMIDAZO[1,2-α]PYRIDINE MONOHYDROCHLORIDE], the “D25 QT (dose required to produce a 25% increase in Q-T interval)” value (Sprague Dawley rats) was 16 µmol/kg, the “D25 PR (dose required to produce a 25% increase in P-R interval)” value (Sprague Dawley rats; [1]) was 24 µmol/kg and the pIC50 (hH1 Na+ current) was 4.47. The pIC50 (Kv1.5) was 5.40, the pIC50 (Kv4.2) was 5.15 and the pIC50 (HERG) was 7.22.

In the case of `O=C(NCC1CCCCN1)c1cc(OCC(F)(F)F)ccc1OCC(F)(F)F` (centres unmarked) [Flecainide], the “Median dose required for termination of AF” value (Mongrel dogs) was 2.5 µmol/kg and the “Mean dose required for termination of AF” value (Mongrel dogs; mean ±SEM) was 4 ± 2 µmol/kg.
